26 compounds from patent US11117887B2, “Aryl substituted pyrimidines for use in influenza virus infection” (Janssen Sciences Ireland Unlimited Company, priority 2016, dated 2021) can be followed below.

One data set in a line: in vitro. The note with it: dog.
Data set [1] deals with influenza virus A/Taiwan/1/86 (H1N1). The data set is described as follows: organism not typed. Format: cell-based. The note with it: 72 h; CPE in infected MDCK cells, ATP levels (ATPlite), three days post-virus exposure.

As usually defined, the IC50 is the concentration that gives 50% inhibition. Read a low IC50 as greater potency in that assay. The term melting point denotes the temperature, or range, at which the solid turns liquid.

In the data set “in vitro”, `Cc1nccc(N[C@H]2CCC[C@@H](Nc3nc(-c4c[nH]c5c(F)cc(F)cc45)ncc3F)C2)n1` [Compound 10] showed a CC50 at 3 days of 2880 nM. This compound showed an IC50 in data set [1] of 20 nM.

As for `Cc1cc(N[C@@H]2CCC[C@H](Nc3nc(-c4c[nH]c5c(F)cc(F)cc45)ncc3F)C2)ncn1` [Compound 11], the CC50 at 3 days in “in vitro” is 5970 nM. In addition, the IC50 in data set [1] came to 8 nM.

`Nc1ncc(F)c(N[C@@H]2CCC[C@H](Nc3nc(-c4c[nH]c5c(F)cc(F)cc45)ncc3F)C2)n1` [Compound 12] had a CC50 at 3 days in “in vitro” greater than 1000 nM. The same compound came in with a 50% inhibitory concentration (IC50) in data set [1] of 6 nM.

In the case of `Nc1nc(N[C@H]2CCC[C@@H](Nc3nc(-c4c[nH]c5c(F)cc(F)cc45)ncc3F)C2)c2ccccc2n1` [Compound 13], the CC50 at 3 days in “in vitro” is 11600 nM. This compound registered an IC50 in data set [1] of 20 nM.

Take `N#Cc1nccc(N[C@@H]2CCC[C@H](Nc3nc(-c4c[nH]c5c(F)cc(F)cc45)ncc3F)C2)n1` [Compound 14]: the melting point worked out at 215.6 °C. The compound also had a CC50 at 3 days in “in vitro” of 3150 nM. This compound also displayed an IC50 in data set [1] of 8 nM.

The compound `COc1nccc(N[C@@H]2CCC[C@H](Nc3nc(-c4c[nH]c5c(F)cc(F)cc45)ncc3F)C2)n1` [Compound 15] came in with a melting point of 139.6 °C. Further, the CC50 at 3 days in “in vitro” turned out to be 3190 nM. The compound further showed a half-maximal inhibitory concentration (IC50) in data set [1] of 75 nM.

`Fc1cc(F)c2[nH]cc(-c3ncc(F)c(N[C@H]4CCC[C@@H](Nc5ccnc(Cl)n5)C4)n3)c2c1` [Compound 16] showed a CC50 at 3 days in “in vitro” of 2170 nM. In data set [1], this compound returned a half-maximal inhibitory concentration (IC50) of 8 nM.

With `Fc1cc(F)c2[nH]cc(-c3ncc(F)c(N[C@H]4CCC[C@@H](Nc5ccncn5)C4)n3)c2c1` [Compound 18], the melting point turned out to be 166.5 °C. In the data set “in vitro”, this compound displayed a CC50 at 3 days of 8340 nM. Further, the 50% inhibitory concentration (IC50) in data set [1] was 8 nM.

Consider `Fc1cc(F)c2[nH]cc(-c3ncc(F)c(N[C@H]4CCC[C@@H](Nc5ncncc5F)C4)n3)c2c1` [Compound 19], for which the melting point is 215.6 °C. Besides, the CC50 at 3 days in “in vitro” is greater than 25000 nM. The same compound gave a 50% inhibitory concentration (IC50) in data set [1] of 140 nM.

In the data set “in vitro”, `Cc1nc(-c2c[nH]c3c(F)cc(F)cc23)nc(N[C@@H]2CCC[C@H](Nc3cc(C(F)(F)F)nc(Cl)n3)C2)c1F` [Compound 35] yielded a CC50 at 3 days of 890 nM. The midpoint of inhibition in data set [1], the IC50, lay at 30 nM.

Compound `Cc1nc(Cl)nc(N[C@@H]2CCC[C@H](Nc3nc(-c4c[nH]c5c(F)cc(F)cc45)nc(C)c3F)C2)c1F` [Compound 36] registered a CC50 at 3 days in “in vitro” greater than 25000 nM. The same compound gave an IC50 in data set [1] of 2 nM.

`Cc1nc(-c2c[nH]c3c(F)cc(F)cc23)nc(N[C@H]2CCC[C@@H](Nc3nc(Cl)nc4c3CCCC4)C2)c1F` [Compound 37]: the CC50 at 3 days in the data set “in vitro” is greater than 25000 nM. The IC50 in data set [1] is 11 nM.

As for `Cc1nc(-c2c[nH]c3c(F)cc(F)cc23)nc(N[C@H]2CCC[C@@H](Nc3nc(Cl)nc4c3CCC4)C2)c1F` [Compound 38], the CC50 at 3 days in the data set “in vitro” was greater than 25000 nM. Besides, the IC50 in data set [1] worked out at 1 nM.

For `Cc1nc(-c2c[nH]c3c(F)cc(F)cc23)nc(N[C@H]2CCC[C@@H](Nc3nc(Cl)nc4sccc34)C2)c1F` [Compound 39], the CC50 at 3 days in “in vitro” was greater than 25000 nM. In addition, in data set [1], it took 3 nM to reach half-maximal inhibition (IC50).

Compound `Cc1nc(-c2c[nH]c3c(F)cc(F)cc23)nc(N[C@H]2CCC[C@@H](Nc3cncc(Cl)n3)C2)c1F` [Compound 40] came in with a melting point of 201.8 °C. The compound further registered a CC50 at 3 days in the data set “in vitro” greater than 25000 nM. Further, the midpoint of inhibition in data set [1], the IC50, lay at 24 nM.

Take `Cc1nc(-c2c[nH]c3c(F)cc(F)cc23)nc(N[C@H]2CCC[C@@H](Nc3ncc(C4CC4)c(Cl)n3)C2)c1F` [Compound 41]: the melting point was 222.7 °C. For the same compound, in the data set “in vitro”, the CC50 at 3 days is greater than 25000 nM. Moreover, the half-maximal inhibitory concentration (IC50) in data set [1] amounted to 39 nM.

In “in vitro”, `Cc1nc(-c2c[nH]c3c(F)cc(F)cc23)nc(N[C@H]2CCC[C@@H](Nc3nc(Cl)ncc3C3CC3)C2)c1F` [Compound 42] showed a CC50 at 3 days greater than 25000 nM. This compound registered an IC50 in data set [1] of 41 nM.

`Cc1nc(-c2c[nH]c3c(F)cc(F)cc23)nc(N[C@H]2CCC[C@@H](Nc3nc(O)ncc3C#N)C2)c1F` [Compound 43] yielded a CC50 at 3 days in “in vitro” greater than 25000 nM. In addition, the half-maximal inhibitory concentration (IC50) in data set [1] was 0.6 nM.

Regarding `Cc1cnc(Cl)nc1N[C@@H]1CCC[C@H](Nc2nc(-c3c[nH]c4c(F)cc(F)cc34)nc(C)c2F)C1` [Compound 44], the melting point amounted to 185.4 °C. The CC50 at 3 days in the data set “in vitro” is greater than 25000 nM. Moreover, inhibition in data set [1] was half-maximal at 10 nM (IC50).

Turning to `COc1cnc(Cl)nc1N[C@@H]1CCC[C@H](Nc2nc(-c3c[nH]c4c(F)cc(F)cc34)nc(C)c2F)C1` [Compound 45], the melting point amounted to 246.6 °C. In addition, the CC50 at 3 days in “in vitro” is greater than 25000 nM. In data set [1], inhibition was half-maximal at 36 nM (IC50).

The compound `Cc1cc(N[C@@H]2CCC[C@H](Nc3nc(-c4c[nH]c5c(F)cc(F)cc45)nc(C)c3F)C2)ncn1` [Compound 46] came in with a CC50 at 3 days in the data set “in vitro” greater than 25000 nM. Moreover, inhibition in data set [1] was half-maximal at 2 nM (IC50).

Compound `Cc1nc(-c2c[nH]c3c(F)cc(F)cc23)nc(N[C@H]2CCC[C@@H](Nc3ncnc4nc[nH]c34)C2)c1F` [Compound 47] displayed a CC50 at 3 days in “in vitro” of 11000 nM. For the same compound, 0.7 nM corresponded to half-maximal inhibition in data set [1] (IC50).

On to `Cc1cc(N[C@@H]2CCC[C@H](Nc3nc(-c4c[nH]c5c(F)cc(F)cc45)nc(C(=O)O)c3F)C2)nc(Cl)n1` [Compound 54], for which, in the data set “in vitro”, the CC50 at 3 days is greater than 25000 nM. Further, the IC50 in data set [1] worked out at 61 nM.

`Cc1cc(N[C@@H]2CCC[C@H](Nc3nc(-c4c[nH]c5ncncc45)nc(C)c3F)C2)ncn1` [Compound 64] had a CC50 at 3 days in “in vitro” greater than 25000 nM. This compound also displayed an IC50 in data set [1] of 8 nM.

`Cc1ccnc(N[C@@H]2CCC[C@H](Nc3nc(-c4c[nH]c5ncncc45)nc(C)c3F)C2)n1` [Compound 65] showed a CC50 at 3 days in the data set “in vitro” greater than 25000 nM. In data set [1], the IC50 was found to be 7 nM.

Compound `Cc1cc(O[C@@H]2CCC[C@H](Nc3nc(-c4c[nH]c5c(F)cc(F)cc45)nc(C)c3F)C2)ncn1` [Compound 71] displayed a CC50 at 3 days in the data set “in vitro” of 2200 nM. In data set [1], this compound gave an IC50 of 13 nM.
